Experimental data published in patent publication US10240133B2, “ERK-derived peptides and uses thereof” (Yeda Research and Development Co. Ltd., priority 2013, dated 2019).
“Also recorded” adds a separate entry of the source.

Key:
Type in all cases: cell-based
ERK1/2 = experiment: Western blotting of ERK phosphorylation (TEY, NTS)
Procedure: (A) EPE peptide prevents ERK1/2-importin7 interaction. HeLa cells were serum starved (0.1%, 16 hours), pretreated with EPE peptide, scrambled peptide (10 μM, 2 hours) or DMSO, and then stimulated with TPA (250 nM, 15 min). ERK1 were precipitated with αgERK1 Ab; importin7 co-immunoprecipitated with ERK1 was detected by WB with αimportin7 Ab. […] T47D, HeLa, MDA-MB-231 and A2352 cells were serum starved (0.1%, 16 hours), pretreated with EPE peptide, scrambled peptide (10 μM, 2 hours) or DMSO control, and then stimulated with TPA (250 nM, indicated times). Cell extracts were subjected to Western blot analysis with the indicated Abs. (C) EPE peptide inhibits phosphorylation of c-Myc and Elk1 in B-Raf melanomas. A2158 and A2352 cells were treated with scrambled and EPE peptide for two hours and then stimulated with the indicated concentration of TPA for 30 min. […] (D) Quantification of some of the results in B and C. […]
(i) Preparation of cellular extracts for Western Blotting: Cells were rinsed twice with ice-cold PBS and scraped into Radio-immunoprecipitation assay buffer (RIPA; 137 mM NaCl, 20 mM Tris (pH 7.4), 10% glycerol, 1% Triton X-100, 0.5% deoxycholate, 0.1% SDS, 2 mM EDTA, 1 mM PMSF, and 20 μM leupeptin). The extracts were centrifuged (20,000×g, 15 min, 4° C.), and the supernatants were further analyzed by Western blotting. […]

[1] = test system: all other transformed cell lines examined (A2352, Hela, MDA-MB-231, DU-145); experiment: Cell viability, EPE peptide compared with PLX4032; settings: EPE 10 μM, PLX4032 1 μM, 1% FCS
Procedure: (§1) FIGS. 3A-3B illustrate that EPE peptide prevents proliferation of cancer but not normal cells. (A) Effect of the EPE peptide on the proliferation of various cell lines. Sixteen cancer and four “normal” immortalized cell lines were treated with either EPE or scrambled peptides as described above. Viable cells were assayed by Methylene Blue at 48 or 72 hours after cell seeding. The data from at least three independent experiments is presented as percent of the amount of viable cells/initial cell number, where initial cell number was considered as 100. (B) Comparison of the effects of the EPE-peptide and Raf inhibitor PLX4032 on cell viability. NHEM-Ad, LOXIMVI, A2352, Hela MDA-MB-231, and DU-145 cells were treated with EPE peptide, scrambled peptide, (10 μM), PLX4032 (1 μM), DMSO control, or no treatment at 1% FCS. The number of cells was detected as above. The graphs present the kinetic of cell growth at the indicated times. All experiments were repeated 3 times in triplicates.
(§2) All cells, except of MCF-10A, were seeded into 12-well cell plates in 1% FBS medium. MCF-10A cells were seeded in their complete medium diluted 5 fold. DMSO, Scr peptide, EPE peptide, or U0126 (final concentration of 10 μM each) were added to the appropriated wells four hours later. Every day medium was changed to fresh one containing the same agents. The number of viable cells was measured by Methylene Blue assay at 72 h after cell seeding. Shortly, cells were fixed with 4% Formaldehyde for 2 h at 23° C., washed once with 0.1M Borate Buffer pH 8.5 and stained with of 1% Methylene Blue in 0.1M Borate Buffer for 10 min. Color was extracted by adding 0.1 M HCl for 3 h at 23° C., and examined at 595 nm. For time course experiments, viable cells were measured at 0, 24, 48, 72 and 96 h after cell seeding. For dose response experiments we treaded the cells with 0.1, 1, 3, 10, or 30 μM of peptides for 72 h, as described above.

[2] = test system: non-transformed melanocytes (NHEM-Ad); experiment: Cell viability, EPE peptide compared with PLX4032; settings: EPE 10 μM, PLX4032 1 μM, 1% FCS
Procedure: as §1, §2

[3] = test system: N-Ras transformed melanoma cells LOXIMVI; experiment: Cell viability, EPE peptide compared with PLX4032; settings: EPE 10 μM, PLX4032 1 μM, 1% FCS
Procedure: as §1, §2

HeLa and T47D cells = experiment: Proliferation assay (Methylene Blue), optimal administration conditions; settings: administered every 24 h in fresh medium
Procedure: FIGS. 9A-9B illustrate the dose response of the EPE peptides on melanoma cells proliferation. LOXIMVI (FIG. 9A) and A2352 (FIG. 9B) melanoma cells were treated with the indicated doses of the EPE or Scr peptides. Presented as percent of viable cells at 72 h/initial cell number.
as §2

GQLNHILGILGEPEQED (Synthetic peptide (EPE)) [EPE peptide, NTS-derived peptide with phosphomimetic EPE motif]
NTS phosphorylation (by CK2) of ERK1/2 (ERK1/2; T47D, HeLa, MDA-MB-231 and A2352 cells): only slightly affected; also recorded: prevents ERK1/2's NTS | activatory ERK-TEY phosphorylation (ERK1/2; four distinct cell lines): no effect | effect on viability relative to PLX4032 [1]: at least as good, or even better, than that of PLX4032 | viability [2]: does not have any significant effect | viability [3]: able to reduce the viability | optimal administration conditions (maximal effect compared to Scr peptide) (HeLa and T47D cells): 10 µM
